These compounds were tested against recombinant human PAI-1 (Homo sapiens, UniProt P05121) (assay: PAI-1 inhibitory activity, Test Method A (tPA fluorogenic substrate, Tris buffer pH8.0, 37 C)). Conditions: 25 μM test compound; Test Method A.
Type: biochemical
Method: To this solution, 50 μL solution of 400 μM fluogenic substrate for tPA (Pyr-Gly-Arg-MCA, Peptide Institute, Inc.) adjusted with the same buffer was added, and reacted for 30 minutes at 37° C. The reaction was stopped by adding 50 μL of 2% acetic acid. Fluorescence was measured at the excitation wavelength=360 nm, emission wavelength=460 or 465 nm using a microplate reader (SPECTRAFLUOR or GENios) by TECAN. The fluorescence intensities in the presence of the PAI-1 as the control (DMSO) or in the absence of the PAI-1 (tPA alone) were taken as 100% and 0% of PAI-1 activities, respectively, and inhibitory ratios of PAI-1 activities in the presence of the test compound were obtained.
<Composition of the Tris Buffer (pH8.0)>

Sequence of recombinant human PAI-1 (P05121 24-402): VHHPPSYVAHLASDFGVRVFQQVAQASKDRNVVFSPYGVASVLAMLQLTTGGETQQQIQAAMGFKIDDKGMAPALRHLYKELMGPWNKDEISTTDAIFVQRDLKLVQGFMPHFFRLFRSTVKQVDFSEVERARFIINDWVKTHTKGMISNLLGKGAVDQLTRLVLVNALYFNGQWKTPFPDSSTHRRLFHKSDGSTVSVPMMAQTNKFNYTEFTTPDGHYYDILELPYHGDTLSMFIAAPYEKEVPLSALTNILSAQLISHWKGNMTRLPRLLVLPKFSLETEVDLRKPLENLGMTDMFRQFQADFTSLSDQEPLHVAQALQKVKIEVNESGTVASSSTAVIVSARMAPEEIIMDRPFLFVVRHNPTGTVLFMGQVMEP

Structure (SMILES)	Inhibitory Ratio at 25 μM (%)
CC(C)C1=NN(c2ccc(Cl)c(Cl)c2)C(=O)C1=Cc1cc(Oc2ccc(Br)cc2)ccc1[N+](=O)[O-] [Compound No. 562, 4-[2-Nitro-5-(4-bromophenoxy)benzylidene]-1-(3,4-dichlorophenyl)-3-isopropyl-2-pyrazolin-5-one]	>99
COc1ccc(Oc2ccc([N+](=O)[O-])c(C=C3C(=O)N(c4ccc(Cl)c(Cl)c4)N=C3C(C)C)c2)cc1OC [Compound No. 563, 4-[2-Nitro-5-(3,4-dimethoxyphenoxy)benzylidene]-1-(3,4-dichlorophenyl)-3-isopropyl-2-pyrazolin-5-one]	62
O=C(O)c1ccc(N2N=C(c3cc(Br)ccc3O)C(=Cc3ccc(Cl)c(Cl)c3)C2=O)cc1 [Compound No. 564, 4-(3,4-Dichlorobenzylidene)-1-(4-carboxyphenyl)-3-(2-hydroxy-5-bromophenyl)-2-pyrazolin-5-one]	96
CCOC1=NN(c2ccc([N+](=O)[O-])cc2)C(=O)C1=Cc1cc(C=Cc2ccc(Oc3ccccc3)cc2)ccc1O [Compound No. 565, 4 [2-Hydroxy-5-(4-phenoxystyryl)benzylidene]-1-(4-nitrophenyl)-3-ethoxy-2-pyrazolin-5-one]	>99
CC(C)C1=NN(c2ccc(Cl)c(Cl)c2)C(=O)C1=Cc1cc(C=Cc2ccc(Oc3ccccc3)cc2)ccc1O [Compound No. 566]	76

Same assay, conditions: test compound 25 μM; Test Method A

Structure (SMILES)	Inhibitory Ratio at 25 μM (%)
O=C1SC(=Cc2cc(Br)cc(Br)c2O)C(=O)N1c1ccccc1 [compound 1]	>99
O=C1SC(=Cc2cc(Br)cc(Br)c2O)C(=O)N1Cc1cc(C(F)(F)F)cc(C(F)(F)F)c1 [compound 2, 5-(3,5-Dibromo-2-hydroxybenzylidene)-3-[3,5-bis(trifluoromethyl)benzyl]-thiazolidine-2,4-dione]	52
COc1cc(CN2C(=O)SC(=Cc3cccc(O)c3O)C2=O)cc(OC)c1 [compound 3, 5-(2,3-Dihydroxybenzylidene)-3-(3,5-dimethoxybenzyl)thiazolidine-2,4-dione]	71
O=C1SC(=Cc2ccc(O)c(O)c2)C(=O)N1Cc1cc(C(F)(F)F)cc(C(F)(F)F)c1 [compound 4]	>99
Cc1cccc(C=C2SC(=O)N(Cc3cc(C(F)(F)F)cc(C(F)(F)F)c3)C2=O)c1O [compound 6]	46
O=C1SC(=Cc2cccc(O)c2O)C(=O)N1Cc1ccc(Cl)c(Cl)c1 [compound 8, 5-(2,3-Dihydroxybenzylidene)-3-(3,4-dichlorobenzyl)thiazolidine-2,4-dione]	>99
O=C1SC(=Cc2ccc(O)c(O)c2)C(=O)N1Cc1ccc(Cl)c(Cl)c1 [compound 9]	>99
O=C1SC(=Cc2cccc(O)c2O)C(=O)N1Cc1cc(Cl)cc(Cl)c1 [compound 11, 5-(2,3-Dihydroxybenzylidene)-3-(3,5-dichlorobenzyl)thiazolidine-2,4-dione]	>99
O=C1SC(=Cc2ccc(O)c(O)c2)C(=O)N1Cc1cc(Cl)cc(Cl)c1 [compound 12]	>99
CC(C)(C)c1cc(CN2C(=O)SC(=Cc3cccc(O)c3O)C2=O)cc(C(C)(C)C)c1O [compound 13, 5-(2,3-Dihydroxybenzylidene)-3-[3,5-di(tert-butyl)-4-hydroxybenzyl]-thiazolidine-2,4-dione]	>99
CC(C)(C)c1cc(CN2C(=O)SC(=Cc3ccc(O)c(O)c3)C2=O)cc(C(C)(C)C)c1O [compound 14]	>99
COc1cc(OC)c(OC)cc1CN1C(=O)SC(=Cc2cccc(O)c2O)C1=O [compound 15, 5-(2,3-Dihydroxybenzylidene)-3-(2,4,5-trimethoxybenzyl)thiazolidine-2,4-dione]	93
O=C1SC(=Cc2cccc(O)c2O)C(=O)N1Cc1cccc(Oc2ccccc2)c1 [compound 16, 5-(2,3-Dihydroxybenzylidene)-3-(3-phenoxybenzyl)thiazolidine-2,4-dione]	>99
O=C1SC(=Cc2ccc(O)c(O)c2)C(=O)N1Cc1cccc(Oc2ccccc2)c1 [compound 17]	>99
O=C1SC(=Cc2ccc(O)c(O)c2)C(=O)N1Cc1cccc(Cl)c1Cl [compound 19]	>99
O=C1SC(=Cc2cccc(O)c2O)C(=O)N1Cc1ccc(-c2ccccc2)cc1 [compound 20, 5-(2,3-Dihydroxybenzylidene)-3-(4-phenylbenzyl)thiazolidine-2,4-dione]	>99
O=C1SC(=Cc2ccc(O)c(O)c2)C(=O)N1Cc1ccc(-c2ccccc2)cc1 [compound 21]	>99
O=C1SC(=Cc2cccc(O)c2O)C(=O)N1Cc1cc(F)cc(F)c1 [compound 24, 5-(2,3-Dihydroxybenzylidene)-3-(3,5-difluorobenzyl)thiazolidine-2,4-dione]	>99
O=C1SC(=Cc2ccc(O)c(O)c2)C(=O)N1Cc1cc(F)cc(F)c1 [compound 25]	>99
Cc1cc(C)cc(CN2C(=O)SC(=Cc3cccc(O)c3O)C2=O)c1 [compound 26, 5-(2,3-Dihydroxybenzylidene)-3-(3,5-dimethylbenzyl)thiazolidine-2,4-dione]	>99
Cc1cc(C)cc(CN2C(=O)SC(=Cc3ccc(O)c(O)c3)C2=O)c1 [compound 27]	>99
CCOC(=O)c1cc(C=C2SC(=O)N(Cc3cc(C(F)(F)F)cc(C(F)(F)F)c3)C2=O)ccc1O [compound 28, 5-(3-Ethoxycarbonyl-4-hydroxybenzylidene)-3-[3,5-bis(trifluoromethyl)-benzyl]thiazolidine-2,4-dione]	62
O=C1SC(=Cc2ccc(O)c(O)c2O)C(=O)N1Cc1ccc(Cl)c(Cl)c1 [compound 29]	68
O=C1SC(=Cc2cccc(O)c2O)C(=O)N1Cc1cccc(Cl)c1 [compound 30, 5-(2,3-Dihydroxybenzylidene)-3-(3-chlorobenzyl)thiazolidine-2,4-dione]	>99
O=C1SC(=Cc2ccc(O)c(O)c2)C(=O)N1Cc1cccc(Cl)c1 [compound 31]	>99
O=C1SC(=Cc2cccc(O)c2O)C(=O)N1Cc1ccc(Cl)cc1 [compound 32, 5-(2,3-Dihydroxybenzylidene)-3-(4-chlorobenzyl)thiazolidine-2,4-dione]	>99
O=C1SC(=Cc2ccc(O)c(O)c2)C(=O)N1Cc1ccc(Cl)cc1 [compound 33]	>99
O=C1SC(=Cc2cccc(O)c2O)C(=O)N1Cc1cccc(Br)c1 [compound 34, 5-(2,3-Dihydroxybenzylidene)-3-(3-bromobenzyl)thiazolidine-2,4-dione]	>99
O=C1SC(=Cc2ccc(O)c(O)c2)C(=O)N1Cc1cccc(Br)c1 [compound 35]	>99
